Drawing on US10391106B2, “19-nor C3, 3-disubstituted C21-C-bound heteroaryl steroids and methods of use thereof” (Sage Therapeutics, Inc., priority 2013, dated 2019), this text covers IC50 and Emax for nine molecules.

Test [1] has as its target GABAA-R (rat brain cortical membranes). Put plainly: Steroid inhibition of [35S]-TBPS binding (radioligand displacement). Conditions: in the presence of 5 μM GABA. On the procedure: Steroid Inhibition of TBPS Binding
[35S]-t-Butylbicyclophosphorothionate (TBPS) binding assays using rat brain cortical membranes in the presence of 5 μM GABA has been described (Gee et al, J. Pharmacol. Exp. Ther. 1987, 241, 346-353; Hawkinson et al, Mol. Pharmacol. 1994, 46, 977-985; Lewin, A. H et al., Mol. Pharmacol. 1989, 35, 189-194).
Briefly, cortices are rapidly removed following decapitation of carbon dioxide-anesthetized Sprague-Dawley rats (200-250 g). The cortices are homogenized in 10 volumes of ice-cold 0.32 M sucrose using a glass/teflon homogenizer and centrifuged at 1500×g for 10 min at 4° C. The resultant supernatants are centrifuged at 10,000×g for 20 min at 4° C. to obtain the P2 pellets. The P2 pellets are resuspended in 200 mM NaCl/50 mM Na-K phosphate pH 7.4 buffer and centrifuged at 10,000×g for 10 min at 4° C. This washing procedure is repeated twice and the pellets are resuspended in 10 volumes of buffer. Aliquots (100 μL) of the membrane suspensions are incubated with 3 nM [^35S]-TBPS and 5 μL aliquots of test drug dissolved in dimethyl sulfoxide (DMSO) (final 0.5%) in the presence of 5 μM GABA. The incubation is brought to a final volume of 1.0 mL with buffer. […] Following a 90 min incubation at room temp, the assays are terminated by filtration through glass fiber filters (Schleicher and Schuell No. 32) using a cell harvester (Brandel) and rinsed three times with ice-cold buffer. Filter bound radioactivity is measured by liquid scintillation spectrometry. Non-linear curve fitting of the overall data for each drug averaged for each concentration is done using Prism (GraphPad). […] The concentration of test compound producing 50% inhibition (IC50) of specific binding and the maximal extent of inhibition (Imax) are determined for the individual experiments with the same model used for the overall data and then the means ±SEM.s of the individual experiments are calculated.
Various compounds are or can be screened to determine their potential as modulators of [^35S]-TBPS binding in vitro. These assays are or can be performed in accordance with the above discussed procedures.

For the next test, the target named is T1, GABAA receptor α1β2γ2 (Homo sapiens, UniProt P14867+P47870).
T1 construct: expressed in transfected cells; host or cells: LTK cells (stably transfected)
Put plainly: Patch clamp electrophysiology, Qpatch in Ltk cells. It is filed as cell-based. Conditions: 10 μM test article, potentiation of GABA EC20 (2 μM) current, read-out: GABA (α1β2γ2) Qpatch in Ltk, % efficacy at 10 μM. On the procedure: (§1) Patch Clamp Electrophysiology of Recombinant α1β2γ2 and α4β3δ GABAA Receptors
(§2) Cellular electrophysiology is used to measure the pharmacological properties of our GABAA receptor modulators in heterologous cell systems. Each compound is tested for its ability to affect GABA mediated currents at a submaximal agonist dose (GABA EC20=2 μM). LTK cells are stably transfected with the α1β2γ2 subunits of the GABA receptor and CHO cells are transiently transfected with the α4β3δ subunits via the Lipofecatamine method. Cells were passaged at a confluence of about 50-80% and then seeded onto 35 mm sterile culture dishes containing 2 ml culture complete medium without antibiotics or antimycotics. Confluent clusters of cells are electrically coupled (Pritchett et al, Science, 1988, 242, 1306-1308.). Because responses in distant cells are not adequately voltage clamped and because of uncertainties about the extent of coupling (Verdoorn et al., Neuron 1990, 4, 919-928.), cells were cultivated at a density that enables the recording of single cells (without visible connections to other cells).
Whole cell currents were measured with HEKA EPC-10 amplifiers using PatchMaster software or by using the high throughput QPatch platform (Sophion). Bath solution for all experiments contained (in mM): NaCl 137 mM, KCl 4 mM, CaCl2 1.8 mM, MgCl2 1 mM, HEPES 10 mM, D-Glucose 10 mM, pH (NaOH) 7.4.. In some cases 0.005% cremophor was also added. Intracellular (pipette) solution contained: KCl 130 mM, MgCl2 1 mM, Mg-ATP 5 mM, HEPES 10 mM, EGTA 5 mM, pH 7.2. During experiments, cells and solutions were maintained at room temperature (19° C.-30° C.). For manual patch clamp recordings, cell culture dishes were placed on the dish holder of the microscope and continuously perfused (1 ml/min) with bath solution. After formation of a Gigaohm seal between the patch electrodes and the cell (pipette resistance range: 2.5 MΩ-6.0 MΩ; seal resistance range:>1 GΩ) the cell membrane across the pipette tip was ruptured to assure electrical access to the cell interior (whole-cell patch-configuration). For experiments using the QPatch system, cells were transferred as suspension to the QPatch system in the bath solution and automated whole cell recordings were performed.
Cells were voltage clamped at a holding potential of −80 mV. For the analysis of test articles, GABA receptors were stimulated by 2 μM GABA after sequential pre-incubation of increasing concentrations of the test article. Pre-incubation duration was 30 s and the duration of the GABA stimulus was 2 s. Test articles were dissolved in DMSO to form stock solutions (10 mM). Test articles were diluted to 0.01, 0.1, 1, and 10 μM in bath solution. All concentrations of test articles were tested on each cell. The relative percentage potentiation was defined as the peak amplitude in response to GABA EC20 in the presence of the test article divided by the peak amplitude in response to GABA EC20 alone, multiplied by 100.
In general terms: In patch-clamp work, channel activity is measured electrically.

In a further test the target is T2, GABAA receptor α4β3δ (Homo sapiens, UniProt P28472+P48169).
T2 construct: expressed in transfected cells; host or cells: CHO cells (transiently transfected, Lipofectamine)
Put plainly: Patch clamp electrophysiology, manual patch in CHO cells. It is filed as cell-based. Conditions: 10 μM test article, potentiation of GABA EC20 (2 μM) current, read-out: GABA (α4β3δ) Manual patch in CHO, % efficacy at 10 μM. The method, then: as §1, §2
Whole cell currents were measured with HEKA EPC-10 amplifiers using PatchMaster software or by using the high throughput QPatch platform (Sophion). Bath solution for all experiments contained (in mM): NaCl 137 mM, KCl 4 mM, CaCl2 1.8 mM, MgCl2 1 mM, HEPES 10 mM, D-Glucose 10 mM, pH (NaOH) 7.4.. […]

T1 sequence (P14867 28-456): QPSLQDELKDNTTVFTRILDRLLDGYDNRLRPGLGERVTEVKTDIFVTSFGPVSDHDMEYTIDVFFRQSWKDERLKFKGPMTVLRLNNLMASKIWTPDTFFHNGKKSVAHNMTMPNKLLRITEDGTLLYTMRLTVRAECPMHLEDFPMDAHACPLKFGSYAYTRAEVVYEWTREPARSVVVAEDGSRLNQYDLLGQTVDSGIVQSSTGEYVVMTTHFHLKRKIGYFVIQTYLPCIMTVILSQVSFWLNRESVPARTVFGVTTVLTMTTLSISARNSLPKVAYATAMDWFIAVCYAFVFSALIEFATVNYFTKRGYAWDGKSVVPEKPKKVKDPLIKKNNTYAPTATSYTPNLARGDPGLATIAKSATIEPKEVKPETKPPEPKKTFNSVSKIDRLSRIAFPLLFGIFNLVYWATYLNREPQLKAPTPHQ
T1 sequence (P47870 25-512 limits assumed): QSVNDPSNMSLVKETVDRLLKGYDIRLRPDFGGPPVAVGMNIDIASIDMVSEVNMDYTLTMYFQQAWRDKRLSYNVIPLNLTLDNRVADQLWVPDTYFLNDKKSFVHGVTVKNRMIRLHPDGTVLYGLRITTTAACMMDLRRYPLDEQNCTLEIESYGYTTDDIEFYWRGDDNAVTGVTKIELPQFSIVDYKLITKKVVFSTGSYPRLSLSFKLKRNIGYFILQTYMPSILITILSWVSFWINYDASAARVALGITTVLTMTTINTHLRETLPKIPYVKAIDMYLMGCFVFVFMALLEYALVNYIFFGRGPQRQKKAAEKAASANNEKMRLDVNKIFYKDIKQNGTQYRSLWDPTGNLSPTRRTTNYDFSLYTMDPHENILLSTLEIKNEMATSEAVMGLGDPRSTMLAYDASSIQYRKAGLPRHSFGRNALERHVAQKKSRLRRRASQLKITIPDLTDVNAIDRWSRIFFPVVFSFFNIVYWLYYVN
T1 sequence (P18507 40-475 partner): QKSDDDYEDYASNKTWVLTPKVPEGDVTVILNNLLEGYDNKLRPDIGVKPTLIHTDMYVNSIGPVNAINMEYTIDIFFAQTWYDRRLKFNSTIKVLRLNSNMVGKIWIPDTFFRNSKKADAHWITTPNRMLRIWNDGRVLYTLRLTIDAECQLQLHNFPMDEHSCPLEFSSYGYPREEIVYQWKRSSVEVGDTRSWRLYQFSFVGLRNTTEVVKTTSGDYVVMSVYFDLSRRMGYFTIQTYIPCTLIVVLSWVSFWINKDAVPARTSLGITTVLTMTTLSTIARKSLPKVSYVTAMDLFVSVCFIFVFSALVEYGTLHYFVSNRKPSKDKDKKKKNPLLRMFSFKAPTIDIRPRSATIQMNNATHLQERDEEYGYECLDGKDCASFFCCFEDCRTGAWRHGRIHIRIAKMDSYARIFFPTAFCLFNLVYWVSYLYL
T2 sequence (P48169 36-554): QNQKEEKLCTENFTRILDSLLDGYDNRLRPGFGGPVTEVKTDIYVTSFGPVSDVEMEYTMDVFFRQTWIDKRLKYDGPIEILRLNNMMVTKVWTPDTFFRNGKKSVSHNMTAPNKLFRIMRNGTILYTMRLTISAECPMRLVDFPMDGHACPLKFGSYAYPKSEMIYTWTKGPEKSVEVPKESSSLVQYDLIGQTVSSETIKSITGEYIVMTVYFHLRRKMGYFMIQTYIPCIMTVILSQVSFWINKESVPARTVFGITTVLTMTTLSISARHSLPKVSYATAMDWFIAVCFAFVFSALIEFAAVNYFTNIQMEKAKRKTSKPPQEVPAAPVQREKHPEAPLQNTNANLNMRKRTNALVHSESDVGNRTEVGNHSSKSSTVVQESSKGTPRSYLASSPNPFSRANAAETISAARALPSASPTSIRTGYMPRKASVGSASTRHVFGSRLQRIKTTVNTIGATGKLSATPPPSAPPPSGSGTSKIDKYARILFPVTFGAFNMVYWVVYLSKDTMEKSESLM
T2 sequence (P28472 26-473): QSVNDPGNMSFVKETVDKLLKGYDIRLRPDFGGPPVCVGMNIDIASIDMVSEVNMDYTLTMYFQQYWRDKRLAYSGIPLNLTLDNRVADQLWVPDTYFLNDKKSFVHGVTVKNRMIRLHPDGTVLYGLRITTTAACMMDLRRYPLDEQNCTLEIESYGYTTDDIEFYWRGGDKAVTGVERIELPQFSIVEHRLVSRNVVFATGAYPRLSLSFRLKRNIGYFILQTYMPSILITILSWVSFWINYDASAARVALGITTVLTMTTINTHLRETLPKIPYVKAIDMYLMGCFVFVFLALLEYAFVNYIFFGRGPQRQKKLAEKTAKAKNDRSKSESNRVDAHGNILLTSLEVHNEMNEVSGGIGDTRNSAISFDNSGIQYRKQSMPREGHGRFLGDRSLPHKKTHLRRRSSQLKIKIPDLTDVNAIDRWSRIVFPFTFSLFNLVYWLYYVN
T2 sequence (O14764 25-452 partner): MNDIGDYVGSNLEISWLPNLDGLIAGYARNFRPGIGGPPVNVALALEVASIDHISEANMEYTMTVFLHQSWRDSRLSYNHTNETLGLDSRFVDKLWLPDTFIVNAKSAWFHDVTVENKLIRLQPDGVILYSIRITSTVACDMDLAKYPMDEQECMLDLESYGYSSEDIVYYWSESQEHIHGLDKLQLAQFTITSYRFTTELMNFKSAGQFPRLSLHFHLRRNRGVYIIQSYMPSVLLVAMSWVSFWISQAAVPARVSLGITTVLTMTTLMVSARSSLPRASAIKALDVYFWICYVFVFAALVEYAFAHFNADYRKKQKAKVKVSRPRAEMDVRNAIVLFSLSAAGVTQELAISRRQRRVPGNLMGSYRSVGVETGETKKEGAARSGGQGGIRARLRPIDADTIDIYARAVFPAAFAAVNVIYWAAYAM

In general, IC50 refers to the concentration that gives 50% inhibition. On to `Cc1nc(CC(=O)[C@H]2CC[C@H]3[C@@H]4CC[C@@H]5C[C@](C)(O)CC[C@@H]5[C@H]4CC[C@]23C)oc1C` [SA-1], for which, in test [1], the IC50 was less than 50 nM. The Emax at 10 µM on GABAA receptor α1β2γ2 is greater than 500%; on GABAA receptor α4β3δ it was 10 to 100%.
For `C[C@@]1(O)CC[C@H]2[C@H](CC[C@@H]3[C@@H]2CC[C@]2(C)[C@@H](C(=O)Cc4ccccn4)CC[C@@H]32)C1` [SA-2], the IC50 in test [1] was less than 50 nM. Besides, the Emax at 10 µM at GABAA receptor α1β2γ2 and on GABAA receptor α4β3δ was 100 to 500% throughout.
`Cn1ccnc1CC(=O)[C@H]1CC[C@H]2[C@@H]3CC[C@@H]4C[C@](C)(O)CC[C@@H]4[C@H]3CC[C@]12C` [SA-3]: the IC50 in test [1] lay in the range of 100 to 500 nM. In addition, at GABAA receptor α1β2γ2, the Emax at 10 µM is 100 to 500%.
On to `Cc1cccc(CC(=O)[C@H]2CC[C@H]3[C@@H]4CC[C@@H]5C[C@](C)(O)CC[C@@H]5[C@H]4CC[C@]23C)n1` [SA-4], for which, in test [1], the IC50 was less than 50 nM. Moreover, the Emax at 10 µM at GABAA receptor α1β2γ2 lay in the range of 100 to 500%.
In the case of `C[C@@]1(O)CC[C@H]2[C@H](CC[C@@H]3[C@@H]2CC[C@]2(C)[C@@H](C(=O)Cc4ccccc4)CC[C@@H]32)C1` [SA-5], the concentration for half-maximal inhibition (IC50) in test [1] is less than 50 nM.
In the case of `C[C@@]1(O)CC[C@H]2[C@H](CC[C@@H]3[C@@H]2CC[C@]2(C)[C@@H](C(=O)Cc4nccs4)CC[C@@H]32)C1` [SA-7], in test [1], the IC50 is less than 50 nM. In addition, the Emax at 10 µM on GABAA receptor α1β2γ2 is greater than 500%.
For `Cc1nc(CC(=O)[C@H]2CC[C@H]3[C@@H]4CC[C@@H]5C[C@](C)(O)CC[C@@H]5[C@H]4CC[C@]23C)sc1C` [SA-8], the IC50 in test [1] lay in the range of 50 to 100 nM.
For the molecule `C[C@@]1(O)CC[C@H]2[C@H](CC[C@@H]3[C@@H]2CC[C@]2(C)[C@@H](C(=O)Cc4cnccn4)CC[C@@H]32)C1` [SA-9], on GABAA receptor α1β2γ2, the Emax at 10 µM fell in the range of 100 to 500%.
On to `C[C@@]1(O)CC[C@H]2[C@H](CC[C@@H]3[C@@H]2CC[C@]2(C)[C@@H](C(=O)Cc4cccnc4)CC[C@@H]32)C1` [SA-10], for which the half-inhibitory concentration (IC50) in test [1] is less than 50 nM.
